This note sets out measurements from patent EP4803074A1, “PHARMACEUTICAL COMPOSITION OF PYRIMIDINE DERIVATIVE” (TYK Medicines, Inc., priority 2023, dated 2025).

Like-named read-outs stand apart in the source and are kept apart here.

The AUC(0-inf) is total exposure, with the tail of the curve extrapolated. Read a low AUC(0-inf) as low exposure. As usually defined, the Cmax is the maximum level reached in the sampled fluid or tissue. The term Tmax denotes the time from dosing to the highest level. As usually defined, the half-life is the time needed for the level to fall by half in the phase considered.

One data set is described as follows: pH-dependent solubility. Format: physicochemical. The settings on record: result in words. The text has this: (§1) Drugs can be absorbed at many different sites along the gastrointestinal tract (including the stomach, duodenum, jejunum, ileum, and colon) following oral administration. Due to the significant pH gradient between the stomach (pH 1 - 3.5) and the small intestine (pH 4 - 8), the pH varies at each absorption site. […] In such cases, where the solubility of a drug varies with pH-and specifically when solubility is highest at acidic pH levels-a problem arises: the drug may precipitate out of solution as it passes through the gastrointestinal tract, but the drug should remain in solution to be absorbed, such precipitation may affect the extent and rate of absorption.

The nature of data set [1]: Impurity B content of process samples on storage at room temperature (HPLC). In kind it is physicochemical. As to conditions: 20 days (Laboratory placement). The source says:
Impurity B (Impurity RRT1.5, i.e., relative retention time 1.5) is a degradation impurity identified in the stability studies of this formulation and is a specific impurity that requires close monitoring. […] Therefore, the study of Impurity B content is also a key point of the invention. The method for determining the content of Impurity B is as follows: [table] [table] • Heptafluorobutyric acid: Chromatographic grade Water: Ultrapure water Ammonia solution: Chromatographic grade or analytical grade • Acetonitrile: Chromatographic grade Methanol: Chromatographic grade • TY-9591 Reference Standard: In-house preparation or commercially purchased • 3. […]

A further data set can be described thus: Permeability. Format: in vitro ADME. The settings on record: result in words.
Text: as §1

Data set [2] can be described thus: Single-dose pharmacokinetic study, fasting vs high-fat meal. As to conditions: human, in vivo, po, 80 mg, healthy volunteers.
Setting [3] is: After high-fat meal, single oral dose of 80 mg of Tablet 22.
Setting [4] is: Fasting, single oral dose of 80 mg of Tablet 22.

Turning to `[2H]C([2H])([2H])n1cc(-c2ccnc(Nc3cc(NC(=O)C=C)c(N(C)CCN(C)C)cc3OC)n2)c2ccccc21` [TY-9591, N-(2-((2-(dimethylamino)ethyl) (methyl)amine)-4-methoxy-5-((4-(1-deuteriatedmethyl-1H-indol-3-yl)pyrimidin-2-yl)amine)phenyl)acrylamide], in “pH-dependent solubility”, the “solubility at pH 1 (hydrochloric acid) compared to pH 6.8 (sodium hydroxide-sodium dihydrogen phosphate buffer, 25 mM)” value was “higher solubility”. Also, the “Impurity B/%” value in data set [1] is 0.13%. Besides, the permeability result in “Permeability” is given as “moderate permeability”. In addition, the results for the AUC(0-inf) in data set [2] (setting [3]) and in data set [2] (setting [4]) were 4350 ng·h/mL and 3930 ng·h/mL, respectively. Besides, the Cmax in data set [2] (setting [3]) came out at 69 ng/mL; in data set [2] (setting [4]), 67.8 ng/mL. The Tmax was 5.95 h in data set [2] (setting [3]) and 5.99 h in data set [2] (Fasting, single oral dose of 80 mg of Tablet 22 (40 mg*2 tablets)). The half-life in data set [2] (setting [3]) is 48.6 h; in data set [2] (setting [4]) it was 51.2 h. For the same molecule, the AUC(0-t) in data set [2] (After high-fat meal, single oral dose of 80 mg of Tablet 22, read-out: AUC0-72h) worked out at 2670 ng·h/mL; in data set [2] (After high-fat meal, single oral dose of 80 mg of Tablet 22, read-out: AUC0-t) it was 4300 ng·h/mL; in data set [2] (Fasting, single oral dose of 80 mg of Tablet 22, read-out: AUC0-72h) it was 2330 ng·h/mL; in data set [2] (Fasting, single oral dose of 80 mg of Tablet 22, read-out: AUC0-t), 3880 ng·h/mL.
